Reference: US8987254B2, “Tetrahydropyrrolothiazine compounds” (Eli Lilly and Company, priority 2013, dated 2015)
pIC50: −log10 of the molar value. Counter-ions that a name gives are not always drawn. Like-named read-outs stand apart in the source and are kept apart here.

Legend:
[1] = system: PDAPP mice; test: In Vivo Inhibition of Beta-Secretase (brain Abeta 1-x reduction); parameters: species or system mouse; settings: for Abeta 1-x peptide levels reduced in brain cortex / Abeta 1-x peptide levels reduced in brain hippocampus: 3 hours after administration, compared to vehicle-treated mice
Text: Several animal models, including mouse, guinea pig, dog, and monkey, may be used to screen for inhibition of beta-secretase activity in vivo following compound treatment. Animals used in this invention can be wild type, transgenic, or gene knockout animals. For example, the PDAPP mouse model, prepared as described in Games et al., Nature 373, 523-527 (1995), and other non-transgenic or gene knockout animals are useful to analyze in vivo inhibition of Abeta and sAPPbeta production in the presence of inhibitory compounds. Generally, 2 to 12 month old PDAPP mice, gene knockout mice or non-transgenic animals are administered compound formulated in vehicles, such as corn oil, cyclodextran, phosphate buffers, PHARMASOLVE®, or other suitable vehicles. One to twenty-four hours following the administration of compound, animals are sacrificed, and brains as well as cerebrospinal fluid and plasma are removed for analysis of Abetas, C99, and sAPP fragments. (See May, et al., Journal of Neuroscience, 31, 16507-16516 (2011)).
For standard in vivo pharmacology studies, animals are dosed with various concentrations of compound and compared to a vehicle-treated control group dosed at the same time. For some time course studies, brain tissue, plasma, or cerebrospinal fluid is obtained from selected animals, beginning at time 0 to establish a baseline. Compound or appropriate vehicle is administered to other groups and sacrificed at various times after dosing. Brain tissue, plasma, or cerebrospinal fluid is obtained from selected animals and analyzed for the presence of APP cleavage products, including Abeta peptides, sAPPbeta, and other APP fragments, for example, by specific sandwich ELISA assays. At the end of the test period, animals are sacrificed and brain tissues, plasma, or cerebrospinal fluid are analyzed for the presence of Abeta peptides, C99, and sAPPbeta, as appropriate. Brain tissues of APP transgenic animals may also be analyzed for the amount of beta-amyloid plaques following compound treatment. “Abeta 1-x peptide” as used herein refers to the sum of Abeta species that begin with residue 1 and ending with a C-terminus greater than residue 28. This detects the majority of Abeta species and is often called “total Abeta”.

[2] = biological target: human BACE1(1-460):Fc (Homo sapiens (Human), UniProt P56817); test: BACE1 FRET Assay; type: biochemical; settings: purified recombinant huBACE1:Fc, FRET substrate, pH 4.6; Mean ± SEM
Method: (§1) For in vitro enzymatic and cellular assays, test compounds are prepared in DMSO to make up a 10 mM stock solution. The stock solution is serially diluted in DMSO to obtain a ten-point dilution curve with final compound concentrations ranging from […] to 0.05 nM in a 96-well round-bottom plate before conducting the in vitro enzymatic and whole cell assays.
Human BACE1 (accession number: AF190725) is cloned from total brain cDNA by RT-PCR. The nucleotide sequences corresponding to amino acid sequences #1 to 460 are inserted into the cDNA encoding human IgG1 (Fc) polypeptide (Vassar et al. 1999). This fusion protein of BACE1(1-460) and human Fc, named huBACE1:Fc, is constructed into the pJB02 vector. Human BACE1(1-460):Fc (huBACE1:Fc) is transiently expressed in HEK293 cells. 250 μg cDNA of each construct is mixed with Fugene 6 and added to 1 liter HEK293 cells. Four days after the transfection, conditioned media are harvested for purification.
huBACE1:Fc is purified by Protein A chromatography. The enzyme is stored at −80° C. in small aliquots.
Serial dilutions of test compounds are prepared as described above. Compounds are further diluted 20× in KH2PO4 buffer. […] The content is mixed well on a plate shaker for 10 minutes. Fifteen μL of two hundred pM human BACE1(1-460):Fc (See Vasser, et al., Science, 286, 735-741 (1999)) in the KH2PO4 buffer is added to the plate containing substrate and test compounds to initiate the reaction. The RFU of the mixture at time 0 is recorded at excitation wavelength 355 nm and emission wavelength 460 nm, after brief mixing on a plate shaker. The reaction plate is covered with aluminum foil and kept in a dark humidified oven at room temperature for 16 to 24 h. The RFU at the end of incubation is recorded with the same excitation and emission settings used at time 0. The difference of the RFU at time 0 and the end of incubation is representative of the activity of BACE1 under the compound treatment. RFU differences are plotted versus inhibitor concentration and a curve is fitted with a four-parameter logistic equation to obtain the EC50 and IC50 values. (See Sinha, et al., Nature, 402, 537-540 […]).

[3] = system: primary cortical neurons from PDAPP transgenic embryonic mice; test: PDAPP Primary Neuronal Assay (Abeta ELISA); type: cell-based; settings: Mus musculus, Primary cortical neuron, 24 h
Method: as §1
A confirmatory whole cell assay is also run in primary neuronal cultures generated from PDAPP transgenic embryonic mice. Primary cortical neurons are prepared from Embryonic Day 16 PDAPP embryos and cultured in 96 well plates (15×10^4 cells/well in DMEM/F12 (1:1) plus 10% FBS). After 2 days in vitro, culture media is replaced with serum free DMEM/F12 (1:1) containing B27 supplement and 2 μM (final) of Ara-C (Sigma, C1768). At day 5 in vitro, neurons are incubated at 37° C. for 24 h in the presence/absence of inhibitors (diluted in DMSO) at the desired concentration. At the end of the incubation, conditioned media are analyzed for evidence of beta-secretase activity, for example, by analysis of Abeta peptides. Total Abeta peptides (Abeta 1-x) are measured by a sandwich ELISA, using monoclonal 266 as a capture antibody and biotinylated 3D6 as reporting antibody. Alternatively, Abeta 1-40 and Abeta 1-42 peptides are measured by a sandwich ELISA, using monoclonal 2G3 as a capture antibody for Abeta 1-40, and monoclonal 21F12 as a capture antibody for Abeta 1-42. Both Abeta 1-40 and Abeta 1-42 ELISAs use biotinylated 3D6 as the reporting antibody. The concentration of Abeta released in the conditioned media following the compound treatment corresponds to the activity of BACE1 under such conditions. The 10-point inhibition curve is plotted and fitted with the four-parameter logistic equation to obtain the EC50 and IC50 values for the Abeta-lowering effect.

[4] = system: HEK293Swe cells; test: HEK293Swe Whole Cell Assay (Abeta ELISA); type: cell-based; settings: Homo sapiens
Method: as §1
In vitro Abeta reduction assays have been described in the literature (See Dovey, et al., Journal of Neurochemistry, 76, 173-181 (2001); Seubert, et al., Nature, 361, 260 (1993); and Johnson-Wood, et al., Proc. Natl. Acad. Sci. USA, 94, 1550-1555 (1997)).
At the end of the incubation, conditioned media are analyzed for evidence of beta-secretase activity, for example, by analysis of Abeta peptides. Total Abeta peptides (Abeta 1-x) are measured by a sandwich ELISA, using monoclonal 266 as a capture antibody and biotinylated 3D6 as reporting antibody. Alternatively, Abeta 1-40 and Abeta 1-42 peptides are measured by a sandwich ELISA, using monoclonal 2G3 as a capture antibody for Abeta 1-40, and monoclonal 21F12 as a capture antibody for Abeta 1-42. Both Abeta 1-40 and Abeta 1-42 ELISAs use biotinylated 3D6 as the reporting antibody. The concentration of Abeta released in the conditioned media following the compound treatment corresponds to the activity of BACE1 under such conditions. The 10-point inhibition curve is plotted and fitted with the four-parameter logistic equation to obtain the EC50 and IC50 values for the Abeta-lowering effect.

[5] = Abeta 1-40, Mean ± SEM, read-out: PDAPP Neuron A-beta (1-40) ELISA IC50
[6] = Abeta 1-42, Mean ± SEM, read-out: PDAPP Neuron A-beta (1-42) ELISA IC50
[7] = HEK293, Abeta 1-40 in conditioned media, read-out: HEK 293 Swe A-beta (1-40) ELISA IC50
[8] = HEK293, Abeta 1-42 in conditioned media, read-out: HEK 293 Swe A-beta (1-42) ELISA IC50

Sequence of human BACE1(1-460):Fc (P56817 22-460): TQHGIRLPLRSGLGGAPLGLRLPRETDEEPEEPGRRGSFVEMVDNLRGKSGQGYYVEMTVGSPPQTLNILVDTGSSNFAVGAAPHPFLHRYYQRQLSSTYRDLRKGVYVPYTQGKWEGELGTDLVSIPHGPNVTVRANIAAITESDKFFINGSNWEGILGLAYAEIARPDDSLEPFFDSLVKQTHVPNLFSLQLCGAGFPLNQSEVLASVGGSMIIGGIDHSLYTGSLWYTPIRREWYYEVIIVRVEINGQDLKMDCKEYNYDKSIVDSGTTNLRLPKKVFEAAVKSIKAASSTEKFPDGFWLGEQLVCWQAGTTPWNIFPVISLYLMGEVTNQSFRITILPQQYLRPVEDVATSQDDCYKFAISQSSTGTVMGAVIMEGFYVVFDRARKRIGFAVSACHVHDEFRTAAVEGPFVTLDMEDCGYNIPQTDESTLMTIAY

CNS penetration [1]	pIC50 [2]	Compound	Abeta 1-x peptide levels reduced in brain cortex ([1]; 1 mg/kg oral dose)	Abeta 1-x peptide levels reduced in brain hippocampus ([1]; 1 mg/kg oral dose)	Abeta 1-x peptide levels reduced in brain cortex ([1]; 3 mg/kg oral dose) [%]	Abeta 1-x peptide levels reduced in brain hippocampus ([1]; 3 mg/kg oral dose) [%]	Abeta 1-x peptide levels reduced in brain cortex ([1]; 10 mg/kg oral dose) [%]	Abeta 1-x peptide levels reduced in brain hippocampus ([1]; 10 mg/kg oral dose) [%]	pIC50 [3, 5]	pIC50 [3, 6]	pIC50 [4, 7]	pIC50 [4, 8]
demonstrate CNS penetration	9.21	Cl.NC1=N[C@@]2(c3cccc(NC(=O)c4ccc(F)cn4)c3)CN(c3ncc(F)cn3)C[C@H]2CS1 [Example 1, N-{3-[(4aR,7aS)-2-Amino-6-(5-fluoropyrimidin-2-yl)-4a,5,6,7-tetrahydropyrrolo[3,4-d][1,3]thiazin-7a(4H)-yl]phenyl}-5-fluoropyridine-2-carboxamide hydrochloride]	approximately 43%	approximately 34%	~59	~48	~66	~53	9.31	9.23	9.21	9.36
	9.32	COc1cnc(C(=O)Nc2cccc([C@]34CN(c5ncc(F)cn5)C[C@H]3CSC(N)=N4)c2)cn1 [Example 2, N-{3-[(4aR,7aS)-2-Amino-6-(5-fluoropyrimidin-2-yl)-4a,5,6,7-tetrahydropyrrolo[3,4-d][1,3]thiazin-7a(4H)-yl]phenyl}-5-methoxypyrazine-2-carboxamide hydrochloride]							9.61	8.91	9.49	9.54
demonstrate CNS penetration		Cl.NC1=N[C@@]2(c3cc(NC(=O)c4ccc(F)cn4)ccc3F)CN(c3ncc(F)cn3)C[C@H]2CS1 [Example 3, N-[3-[(4aR,7aS)-2-Amino-6-(5-fluoropyrimidin-2-yl)-4,4a,5,7-tetrahydropyrrolo[3,4-d][1,3]thiazin-7a-yl]-4-fluoro-phenyl]-5-fluoro-pyridine-2-carboxamide hydrochloride]	approximately 34%	approximately 38%	~53	~50			9.51	9.74	8.90	9.52
		COc1cnc(C(=O)Nc2ccc(F)c([C@]34CN(c5ncc(F)cn5)C[C@H]3CSC(N)=N4)c2)cn1 [Example 4, N-[3-[(4aR,7aS)-2-Amino-6-(5-fluoropyrimidin-2-yl)-4,4a,5,7-tetrahydropyrrolo[3,4-d][1,3]thiazin-7a-yl]-4-fluoro-phenyl]-5-methoxy-pyrazine-2-carboxamide hydrochloride]							9.87	9.88		
	9.35	N#Cc1ccc(C(=O)Nc2cccc([C@]34CN(c5ncc(F)cn5)C[C@H]3CSC(N)=N4)c2)nc1 [Example 5, N-[3-[(4aR,7aS)-2-Amino-6-(5-fluoropyrimidin-2-yl)-4,4a,5,7-tetrahydropyrrolo[3,4-d][1,3]thiazin-7a-yl]phenyl]-5-cyano-pyridine-2-carboxamide hydrochloride]							9.88	10.09	10.05	10.11
	9.13	NC1=N[C@@]2(c3cccc(NC(=O)c4ncc(F)cc4F)c3)CN(c3ncc(F)cn3)C[C@H]2CS1 [Example 6, N-[3-[(4aR,7aS)-2-Amino-6-(5-fluoropyrimidin-2-yl)-4,4a,5,7-tetrahydropyrrolo[3,4-d][1,3]thiazin-7a-yl]phenyl]-3,5-difluoro-pyridine-2-carboxamide hydrochloride]							9.55	9.51	9.66	9.68
	9.45	N#Cc1ccc(C(=O)Nc2ccc(F)c([C@]34CN(c5ncc(F)cn5)C[C@H]3CSC(N)=N4)c2)nc1 [Example 7, N-[3-[(4aR,7aS)-2-Amino-6-(5-fluoropyrimidin-2-yl)-4,4a,5,7-tetrahydropyrrolo[3,4-d][1,3]thiazin-7a-yl]-4-fluoro-phenyl]-5-cyano-pyridine-2-carboxamide hydrochloride]							10.06	10.19		
		NC1=N[C@@]2(c3cc(NC(=O)c4ncc(F)cc4F)ccc3F)CN(c3ncc(F)cn3)C[C@H]2CS1 [Example 8, N-[3-[(4aR,7aS)-2-Amino-6-(5-fluoropyrimidin-2-yl)-4,4a,5,7-tetrahydropyrrolo[3,4-d][1,3]thiazin-7a-yl]-4-fluoro-phenyl]-3,5-difluoro-pyridine-2-carboxamide hydrochloride]							9.55	9.54		
